In one data set the test system is blood brain barrier. The data set can be described thus: Experiment 7: blood brain barrier permeability after intracarotid infusion (Evans blue content). The settings on record: non-stroke rats, vs vehicle. As for the experimental part: 30 μg/kg of BMX-001 (n=4), or same amount of saline (n=4) or mannitol (n=4) was given to normal male Wistar rats through the carotid artery. The rats received 100 μl 2% Evans blue intravenous infusion 30 min later and then intracardially perfused using 100 ml normal saline at 30 min following infusion. Brains were harvested and the Evans blue content was measured spectrophotometrically.

Data set [1] relates to animal model of ischemic stroke. The settings on record: given 6 hours after reperfusion; cited from earlier work.

“Also recorded” adds a separate entry of the source.

Turning to `OC[C@@H](O)[C@@H](O)[C@H](O)[C@H](O)CO` [Mannitol, reference compound], the “Evans blue content in brain / blood brain barrier permeability, in words” value in the data set on blood brain barrier is reported as “significant increase of Evans blue content; also recorded: did increase the blood brain barrier (BBB) permeability”.
Take `CC[n+]1ccccc1-c1c2nc(c(-c3cccc[n+]3CC)c3ccc([n-]3)c(-c3cccc[n+]3CC)c3nc(c(-c4cccc[n+]4CC)c4ccc1[n-]4)C=C3)C=C2.[Mn+3]` [MnTE-2-PyP^5+]: the “Protection in ischemic stroke, in words” value in data set [1] is “provided protection”.
